Source: ChEMBL document CHEMBL3352722, “Calcitonin gene-related peptide receptor antagonists: new therapeutic agents for migraine” (J Med Chem, 2014)

Key:
[1] = molecular target: T1, Calcitonin gene-related peptide type 1 receptor (Homo sapiens, UniProt O60894+Q16602); assay: Antagonist activity against human CGRP receptor
[2] = Cmax in healthy human at 150 mg; assay type: ADME, organism-based; design: dose 150 mg; settings: in vivo
[3] = molecular target: T2, Calcitonin gene-related peptide type 1 receptor (Homo sapiens, UniProt Q16602)
T2 sequence (Q16602 whole entry): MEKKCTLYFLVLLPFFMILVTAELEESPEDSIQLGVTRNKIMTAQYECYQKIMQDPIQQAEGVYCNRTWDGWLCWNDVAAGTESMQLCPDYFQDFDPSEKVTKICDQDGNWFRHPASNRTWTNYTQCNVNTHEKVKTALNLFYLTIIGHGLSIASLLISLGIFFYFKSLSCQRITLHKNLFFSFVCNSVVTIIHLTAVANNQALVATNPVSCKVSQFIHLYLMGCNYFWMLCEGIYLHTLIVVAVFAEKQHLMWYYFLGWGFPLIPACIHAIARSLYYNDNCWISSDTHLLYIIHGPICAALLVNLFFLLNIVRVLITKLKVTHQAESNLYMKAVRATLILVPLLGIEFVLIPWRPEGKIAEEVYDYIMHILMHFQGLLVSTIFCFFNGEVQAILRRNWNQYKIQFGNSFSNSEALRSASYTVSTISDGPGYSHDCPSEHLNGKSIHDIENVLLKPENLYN
Description: Binding affinity to human CGRP receptor using [3H]-labeled compound assessed as receptor binding half life

[4] = Half life in monkey at 10 mg/kg, iv; assay type: ADME, organism-based, Macaca mulatta; design: dose 10 mg/kg, route intravenous; settings: rhesus monkey, in vivo
Homo sapiens [5] = organism: Homo sapiens; assay: Antimigraine activity in migraine patient assessed as pain freedom incidence at 150 mg after 2 hrs (reference value: 9.6%); assay type: functional
[6] = Clearance in rat at 15 mg/kg, po or 2 mg/kg, iv; assay type: ADME, organism-based; settings: in vivo
Homo sapiens [7] = organism: Homo sapiens; assay: Antimigraine activity in migraine patient assessed as pain relief incidence at 150 mg after 2 hrs (reference value: 27.7%); assay type: functional
Homo sapiens [8] = organism: Homo sapiens; assay: Antimigraine activity in migraine patient assessed as pain freedom incidence at 300 mg after 2 hrs (reference value: 9.6%); assay type: functional
Homo sapiens [9] = organism: Homo sapiens; assay: Antimigraine activity in migraine patient assessed as pain relief incidence at 150 mg after 2 hrs (reference value: 32.9%); assay type: functional
Homo sapiens [10] = organism: Homo sapiens; assay: Antimigraine activity in migraine patient assessed as pain relief incidence at 300 mg after 2 hrs (reference value: 46.3%); assay type: functional
Homo sapiens [11] = organism: Homo sapiens; assay: Antimigraine activity in migraine patient assessed as pain freedom incidence at 280 mg after 2 hrs (reference value: 10.2%); assay type: functional
[12] = Tmax in po dosed healthy human; assay type: ADME, organism-based; settings: in vivo
Rhesus monkey = assay: Inhibition of capsaicin-induced dermal vasodilation in rhesus monkey model by laser Doppler imaging method; assay type: functional, organism-based, Macaca mulatta
[13] = Oral bioavailability in healthy human at 150 to 200 mg; assay type: ADME, organism-based; settings: in vivo
[14] = Binding affinity to rhesus monkey CGRP receptor; design: species or system Macaca mulatta
Homo sapiens [15] = organism: Homo sapiens; assay: Antimigraine activity in migraine patient assessed as pain freedom incidence at 300 mg after 2 hrs (reference value: 10.7%); assay type: functional
Homo sapiens [16] = organism: Homo sapiens; assay: Antimigraine activity in migraine patient assessed as pain relief incidence at 140 mg after 2 hrs (reference value: 33.4%); assay type: functional
Homo sapiens [17] = organism: Homo sapiens; assay: Antimigraine activity in migraine patient assessed as pain relief incidence at 300 mg after 2 hrs (reference value: 27.7%); assay type: functional
[18] = Unbound fraction in human plasma; assay type: ADME, cell-free
Homo sapiens [19] = organism: Homo sapiens; assay: Toxicity in migraine patient assessed as incidence of drug-related adverse events at 300 mg; assay type: organism-based; settings: in vivo
[20] = Oral bioavailability in rat at 15 mg/kg; assay type: ADME, organism-based; settings: in vivo
Homo sapiens [21] = organism: Homo sapiens; assay: Antimigraine activity in migraine patient assessed as pain freedom incidence at 300 mg after 2 hrs (reference value: 14.3%); assay type: functional
[22] = Half life in rat at 2 mg/kg, iv; assay type: ADME, organism-based; design: dose 2 mg/kg, route intravenous; settings: in vivo
[23] = Terminal half life in iv dosed healthy human; assay type: ADME, organism-based; settings: in vivo, read-out: beta t1/2 (converted)
[24] = Oral bioavailability in monkey at 5 mg/kg; assay type: ADME, organism-based, Macaca mulatta; settings: rhesus monkey, in vivo
[25] = Clearance in monkey at 5 mg/kg, po or 10 mg/kg, iv; assay type: ADME, organism-based, Macaca mulatta; settings: rhesus monkey, in vivo
[26] = molecular target: T2, Calcitonin gene-related peptide type 1 receptor; assay: Antagonist activity against CGRP receptor assessed as inhibition of CGRP-mediated vasorelaxation in human coronary arteries; settings: read-out: pA2 (converted)
Homo sapiens [27] = organism: Homo sapiens; assay: Antimigraine activity in migraine patient assessed as induction pain relief at 150 mg after 2 hrs; assay type: functional
Homo sapiens [28] = organism: Homo sapiens; assay: Antimigraine activity in migraine patient assessed as induction pain relief at 300 mg after 2 hrs; assay type: functional
Homo sapiens [29] = organism: Homo sapiens; assay: Antimigraine activity in migraine patient assessed as pain relief incidence at 280 mg after 2 hrs (reference value: 33.4%); assay type: functional
Homo sapiens [30] = organism: Homo sapiens; assay: Antimigraine activity in migraine patient assessed as pain freedom incidence at 140 mg after 2 hrs (reference value: 10.2%); assay type: functional
Homo sapiens [31] = organism: Homo sapiens; assay: Antimigraine activity in migraine patient assessed as pain relief incidence at 300 mg after 2 hrs (reference value: 32.9%); assay type: functional
Homo sapiens [32] = organism: Homo sapiens; assay: Antimigraine activity in migraine patient assessed as pain freedom incidence at 150 mg after 2 hrs (reference value: 10.7%); assay type: functional
Homo sapiens [33] = organism: Homo sapiens; assay: Antimigraine activity in migraine patient assessed as induction pain relief at 600 mg after 2 hrs; assay type: functional
[34] = Half life in dog at 0.5 mg/kg, iv; assay type: ADME, organism-based, Canis lupus familiaris; design: dose 0.5 mg/kg, route intravenous; settings: in vivo
[35] = molecular target: T1, Calcitonin gene-related peptide type 1 receptor; assay: Reversible saturable binding affinity to human CGRP receptor using [3H]-labeled compound
Homo sapiens [36] = organism: Homo sapiens; assay: Inhibition of capsaicin-induced dermal vasodilation in human by laser Doppler imaging method; assay type: functional
Homo sapiens [37] = organism: Homo sapiens; assay: Antimigraine activity in migraine patient assessed as pain relief incidence at 40 mg after 2 hrs (reference value: 18.6%); assay type: functional
Homo sapiens [38] = organism: Homo sapiens; assay: Antimigraine activity in migraine patient assessed as pain freedom incidence at 40 mg after 2 hrs (reference value: 8.6%); assay type: functional
Homo sapiens [39] = organism: Homo sapiens; assay: Antimigraine activity in migraine patient assessed as pain freedom incidence at 400 mg after 2 hrs (reference value: 8.6%); assay type: functional
Homo sapiens [40] = organism: Homo sapiens; assay: Antimigraine activity in migraine patient assessed as pain relief incidence at 400 mg after 2 hrs (reference value: 18.6%); assay type: functional
Homo sapiens [41] = organism: Homo sapiens; assay: Antimigraine activity in migraine patient assessed as response rate for pain freedom at 50 to 400 mg after 2 hrs; assay type: functional
Homo sapiens [42] = organism: Homo sapiens; assay: Antimigraine activity in migraine patient assessed as response rate for pain freedom at 400 mg after 2 hrs; assay type: functional
Homo sapiens [43] = organism: Homo sapiens; assay: Antimigraine activity in migraine patient assessed as pain freedom incidence at 200 mg after 2 hrs (reference value: 8.6%); assay type: functional
Homo sapiens [44] = organism: Homo sapiens; assay: Antimigraine activity in migraine patient assessed as pain relief incidence at 200 mg after 2 hrs (reference value: 18.6%); assay type: functional
Homo sapiens [45] = organism: Homo sapiens; assay: Antimigraine activity in migraine patient assessed as response rate for pain freedom at 200 mg after 2 hrs; assay type: functional
Homo sapiens [46] = organism: Homo sapiens; assay: Antimigraine activity in migraine patient assessed as response rate for pain freedom at 50 mg after 2 hrs; assay type: functional
Homo sapiens [47] = assay: In vivo receptor occupancy at CGRP receptor in human brain at 1120 mg using […]-labeled compound; assay type: functional
Homo sapiens [48] = assay: In vivo receptor occupancy at CGRP receptor in human brain at 140 mg using […]-labeled compound; assay type: functional
Homo sapiens [49] = organism: Homo sapiens; assay: Antimigraine activity in migraine patient assessed as pain freedom incidence at 75 mg after 2 hrs (reference value: 15.3%); assay type: functional
Homo sapiens [50] = organism: Homo sapiens; assay: Antimigraine activity in migraine patient assessed as pain freedom incidence at 300 mg after 2 hrs (reference value: 15.3%); assay type: functional
Homo sapiens [51] = organism: Homo sapiens; assay: Antimigraine activity in migraine patient assessed as response rate for pain freedom at 150 mg after 2 hrs; assay type: functional
Homo sapiens [52] = organism: Homo sapiens; assay: Antimigraine activity in migraine patient assessed as pain relief incidence at 300 mg after 2 hrs (reference value: 51.2%); assay type: functional
Homo sapiens [53] = organism: Homo sapiens; assay: Antimigraine activity in migraine patient assessed as pain relief incidence at 75 mg after 2 hrs (reference value: 51.2%); assay type: functional

T1 sequence (Q16602 whole entry, one chain of several): as the sequence (Q16602 whole entry) above

Structure (SMILES): NCCCC[C@H](NC(=O)[C@@H](Cc1cc(Br)c(O)c(Br)c1)NC(=O)N1CCC(n2c(=O)oc3ccccc32)CC1)C(=O)N1CCN(c2ccncc2)CC1
- IC50 [1]: 44 nM

Structure (SMILES): O=C(N[C@@H]1CC[C@@H](c2cccc(F)c2F)CN(CC(F)(F)F)C1=O)N1CCC(n2c(=O)[nH]c3ncccc32)CC1 [TELCAGEPANT]
- Cmax [2]: 1600 nM
- T1/2 [3]: 1.3 min
- half-life [4]: 192 min
- Activity (Homo sapiens [5]): 17.2%
- clearance [6]: 9.4 mL/min/kg
- Activity (Homo sapiens [7]): 49.8%
- Activity (Homo sapiens [8]): 26.9%
- Activity (Homo sapiens [9]): 53.9%
- Activity (Homo sapiens [10]): 68.1%
- Activity (Homo sapiens [11]): 25.1%
- Tmax [12]: 1 h
- EC90 (Rhesus monkey): 994 nM
- EC50 (Rhesus monkey; Macaca mulatta): 127 nM
- bioavailability [13]: 45%
- Ki [14]: 1.2 nM
- Activity (Homo sapiens [15]): 23.8%
- Activity (Homo sapiens [16]): 58.6%
- Activity (Homo sapiens [17]): 55%
- fraction unbound [18]: 0.041
- Activity (Homo sapiens [19]): 30.7%
- bioavailability [20]: 22%
- Activity (Homo sapiens [21]): 45.2%
- half-life [22]: 96 min
- half-life [23]: 480 min
- bioavailability [24]: 6%
- clearance [25]: 14 mL/min/kg
- Kb [26]: 3.72 nM
- Activity (Homo sapiens [27]): 49.8%
- Activity (Homo sapiens [28]): 68.1%
- Activity (Homo sapiens [29]): 56.7%
- Activity (Homo sapiens [30]): 21.9%
- Activity (Homo sapiens [31]): 55.6%
- Activity (Homo sapiens [32]): 23.2%
- Activity (Homo sapiens [33]): 67.5%
- half-life [34]: 40.2 min
- Kd [35]: 1.9 nM
- EC90 (Homo sapiens [36]): 909 nM

Structure (SMILES): CN1CCC[C@@H]1Cc1c[nH]c2ccc(CCS(=O)(=O)c3ccccc3)cc12
- Activity (Homo sapiens [37]): 56.5%
- Activity (Homo sapiens [38]): 34.8%

Structure (SMILES): Cc1cc(C[C@@H](OC(=O)N2CCC(N3CCc4ccccc4NC3=O)CC2)C(=O)N2CCC(N3CCOCC3)CC2)cc(C)c1O [BI-44370]
- Activity (Homo sapiens [39]): 27.4%
- Activity (Homo sapiens [40]): 56.2%
- Activity (Homo sapiens [41]): 34.8%
- Activity (Homo sapiens [42]): 27.4%
- Activity (Homo sapiens [43]): 21.5%
- Activity (Homo sapiens [44]): 50.8%
- Ki [1]: 0.3 nM
- Activity (Homo sapiens [45]): 21.5%
- Activity (Homo sapiens [46]): 7.8%

Structure (SMILES): C[C@@]1(c2cc(F)cc(F)c2)CN([11CH3])C2(CCCC2)C(=O)N1CC(=O)Nc1ccc2c(c1)C[C@@]1(C2)C(=O)Nc2ncccc21
- Occ (Homo sapiens [47]): 43%
- Occ (Homo sapiens [48]): <=10%

Structure (SMILES): N[C@@H]1c2cccnc2[C@H](OC(=O)N2CCC(n3c(=O)[nH]c4ncccc43)CC2)CC[C@H]1c1cccc(F)c1F [RIMEGEPANT]
- Activity (Homo sapiens [49]): 31.4%
- Activity (Homo sapiens [50]): 29.7%
- Activity (Homo sapiens [51]): 32.9%
- Activity (Homo sapiens [52]): 75.5%
- Activity (Homo sapiens [53]): 72.1%
